Assay results taken from US5567704A, “R-enatiomerically pure hydroxylated xanthine compounds to treat baldness” (priority 1995, dated 1996).

Assays:
smooth muscle cell = experiment: smooth muscle proliferation stimulated by PDGF and IL-1; type: cell-based
Excerpt: CT1501R and PTX were separately added to the cells two hours prior to activation with PDGF and IL-1.

IL-1α = experiment: mouse plasma IL-1α ELISA after endotoxin; type: in vivo; details: for Plasma IL-1: LPS + CT-1501R
Protocol: For ELISA measurements of cytokine levels in plasma, blood was collected by retro-orbital or cardiac puncture of anesthetized mice, immediately centrifuged and the EDTA plasma stored at -70° C. Particulate free plasma was thawed on ice and cytokine levels determined utilizing commercial ELISA assays with normal mouse plasma used to generate standard curves. Murine tumor necrosis factor-α and interleukin-1αkits were purchased from Genzyme (Cambridge, Mass.) and Endogen (Boston, Mass.), respectively. Each data point was an average of two ELISA measurements made from EDTA […] pooled from three mice. The data summarized in Table 3 were compiled from two independent experiments; data from Table 4 and 5 were from single experiments of three mice per data point.
In particular, peak levels observed at 6, 12 and 18 hours post endotoxin were decreased 1.2, 4.3 and 3.2-fold, respectively. Finally, IL-6 measurements were made in a similar manner (Table 6, FIG. 8).

stromelysin/PUMP-1 = experiment: PUMP-1 activity induced by IL-1; type: cell-based; details: induced by 100 U/ml of IL-1
Excerpt: Metalloproteases mediate tissue damage such as glomerular diseases of the kidney, joint destruction in arthritis, and lung destruction in emphysema, and play a role in tumor metastases. Three examples of metalloproteases include a 92 kD type V gelatinase induced by TNF, IL-1 and PDGF plus bFGF, a 72 kD type IV collagenase that is usually constitutive and induced by TNF or IL-1, and a stromelysin/PUMP-1 induced by TNF and IL-1. The inventive compounds can inhibit TNF or IL-1 induction of the 92 kD type V gelatinase inducable metalloprotease. Moreover, CT 1501R reduced PUMP- 1 activity induced by 100 U/ml of IL-1 to 15% of its control levels. […] Accordingly, the inventive compounds prevent induction of certain metalloproteases induced by IL-1 or TNF and are not involved with constitutively produced proteases (e.g., 72 kD type IV collagenase) involved in normal tissue remodeling.

[1] = tested on: IL-1α release in peritoneal macrophages; experiment: IL-1α release in LPS activated PEC (ELISA); type: cell-based, murine; details: Mus musculus, Peritoneal macrophage, at 24 hours after LPS, FIG. 19, read-out: maximum inhibition of IL-1α release
Protocol: Murine peritoneal exudate cell macrophages (PEC) were isolated by perfusion of mouse peritoneum and plated into 96-well trays at 5×10^5 cells per well. Cells were stimulated with 5 μg/ml Salmonella abortus equi -derived endotoxin (LPS; Sigma Chemical Co., L-1887) or […] IL-1α (Genzyme; Cambridge, Mass.) with or without the addition of CT1501R added to the cultures one hour prior to addition of the stimulus. At various times thereafter, supernatants were removed and levels of either TNF-α or IL-1α were assayed using commercial 96-well microtiter immunoassay kits (Genzyme; TNF; Endogen, Boston, Mass.; IL-1α) according to manufacturer's specifications. For the adhesion studies, early passage human umbilical vein endothelial cells (HUVEC) were obtained. from commercial suppliers (Clonetics, San Diego, Calif. or Cell Systems, Seattle, Wash.) and cultured in defined, Hepes buffered, serum free medium (Cell Systems, cat 301-180) supplemented with acidic FGF (Cell Systems cat 401-111). 4000 cells were plated into each well of a 96-well microtiter plate and allowed to incubate for 72 hrs at 37° C. […] After addition of […] Hanks Balanced Salt Solution (HBSS), the microtiter plate was then analyzed on a Millipore Cytofluor fluorescent plate reader (excitation 488 nm; emission 525 nm). […]

[2] = tested on: PBMC (peripheral blood mononuclear cells); experiment: two-way mixed lymphocyte reaction (MLR); type: cell-based, human; details: FIG. 1
Excerpt: Various in vitro assays can be used to measure effects of the inventive compounds to module immune activity and have antitumor activity using a variety of cellular types. For example, a mixed lymphocyte reaction (MLR) provides a valuable screening tool to determine biological activity of each inventive compound. In the MLR, PBMCs (peripheral blood mononuclear cells) are obtained by drawing whole blood from healthy volunteers in a heparinized container and diluted with an equal volume of hanks balanced salt solution (HBSS). This mixture is layered on a sucrose density gradient, such as a Ficoll-Hypaque® gradient (specific gravity 1.08), and centrifuged at 1000× g for 25 minutes at room temperature or cooler. PBMC are obtained from a band at a plasma-Ficoll interface, separated and washed at least twice in a saline solution, such as HBSS. Contaminating red cells are lysed, such as by ACK lysis for 10 min at 37° C., and the PBMCs are washed twice in HBSS. The pellet of purified PBMCs is resuspended in complete medium, such as RPMI 1640 plus 20% human inactivated serum. Proliferative response of PBMC to allogeneic stimulation is determined in a two-way MLR performed in a 96-well microtiter plate. […] At the conclusion of the incubation tritiated thymidine is added (for example, 1 μCi/well of 40 to 60 Ci/mmole) and proliferation determined by liquid scintillation counting. […]

`C[C@@H](O)CCCCn1c(=O)c2c(ncn2C)n(C)c1=O` [CT1501R, (R)-1-(5-hydroxyhexyl)-3,7-dimethylxanthine] was tested, and the “activity compared with PTX, smooth muscle cell proliferation” value (smooth muscle cell; PDGF and IL-1, FIG. 4) was “more active than PTX”, the “inhibition of smooth muscle cell proliferation” value (smooth muscle cell; PDGF and IL-1, drug added two hours prior, FIG. 4) was “inhibited smooth muscle cell proliferation at the higher doses tested” and the “fold decrease of plasma IL-1α” value (IL-1α; 6 hours post endotoxin) was 1.2 fold. The “fold decrease of plasma IL-1α” value (IL-1α; 12 hours post endotoxin) was 4.3 fold, the “fold decrease of plasma IL-1α” value (IL-1α; 18 hours post endotoxin) was 3.2 fold and the “Plasma IL-1” value (IL-1α; 0 hours post LPS) was 0 pg/mL. For the same compound, the “Plasma IL-1” value (IL-1α; 0.17 hours post LPS) was 0 pg/mL, the “Plasma IL-1” value (IL-1α; 0.5 hours post LPS) was 22 pg/mL and the “Plasma IL-1” value (IL-1α; 1 hour post LPS) was 10.8 pg/mL. The “Plasma IL-1” value (IL-1α; 3 hours post LPS) was 33.2 pg/mL, the “Plasma IL-1” value (IL-1α; 6 hours post LPS) was 133 pg/mL and the “Plasma IL-1” value (IL-1α; 12 hours post LPS) was 32.3 pg/mL. The “Plasma IL-1” value (IL-1α; 18 hours post LPS) was 46.7 pg/mL, the “Plasma IL-1” value (IL-1α; 24 hours post LPS) was 43.5 pg/mL and the “Plasma IL-1” value (IL-1α; 36 hours post LPS) was 18.8 pg/mL. For the same compound, the “Plasma IL-1” value (IL-1α; 48 hours post LPS) was 0 pg/mL, the “PUMP-1 activity, % of control levels” value (stromelysin/PUMP-1) was 15% and the inhibition at 250 µM [1] was ~50%. For the same compound, the “proliferative response of PBMC to allogeneic stimulation” value [2] was “showed dose-response activity”.
